pIC50: −log10 of the molar value.
Experiments:
Procathepsin L = Procathepsin L (Homo sapiens, UniProt P07711); assay: Inhibition of Cathepsin L from human kidney; assay type: tissue-based
Interstitial collagenase = molecular target: T1, Interstitial collagenase (Homo sapiens, UniProt P03956); assay: Inhibition of Matrix metalloprotease-1
T1 sequence (P03956 whole entry): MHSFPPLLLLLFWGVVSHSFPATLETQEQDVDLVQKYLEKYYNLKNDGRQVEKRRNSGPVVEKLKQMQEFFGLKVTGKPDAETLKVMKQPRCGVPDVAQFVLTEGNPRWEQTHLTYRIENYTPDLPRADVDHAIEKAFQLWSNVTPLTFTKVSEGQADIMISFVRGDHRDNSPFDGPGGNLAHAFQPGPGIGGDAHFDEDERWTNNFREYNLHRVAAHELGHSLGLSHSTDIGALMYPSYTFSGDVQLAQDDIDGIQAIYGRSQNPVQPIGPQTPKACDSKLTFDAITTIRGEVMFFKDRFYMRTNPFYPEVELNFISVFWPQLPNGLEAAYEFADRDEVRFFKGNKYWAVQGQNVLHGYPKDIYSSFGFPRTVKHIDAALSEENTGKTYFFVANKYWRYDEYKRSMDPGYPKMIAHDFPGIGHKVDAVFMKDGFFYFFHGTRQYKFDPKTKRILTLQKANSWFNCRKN

Sequence of Procathepsin L (P07711 whole entry): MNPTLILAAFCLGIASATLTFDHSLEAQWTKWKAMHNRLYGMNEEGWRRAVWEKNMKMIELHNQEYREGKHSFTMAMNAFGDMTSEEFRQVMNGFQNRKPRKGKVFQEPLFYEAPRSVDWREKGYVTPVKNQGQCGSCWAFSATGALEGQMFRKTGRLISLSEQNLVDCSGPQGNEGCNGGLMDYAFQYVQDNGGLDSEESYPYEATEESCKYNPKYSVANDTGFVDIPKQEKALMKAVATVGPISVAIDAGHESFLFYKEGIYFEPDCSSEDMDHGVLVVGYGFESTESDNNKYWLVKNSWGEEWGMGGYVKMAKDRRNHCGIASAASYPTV

pIC50 (Procathepsin L)	pIC50 (Interstitial collagenase)	Structure (SMILES)
< 6.00		CNC(=O)[C@H](Cc1ccccc1)NC(=O)[C@@H](CC(=O)NO)CC(C)C
8.52	< 6.00	C[C@@H](C=O)NC(=O)[C@H](Cc1ccccc1)NC(=O)OCc1ccccc1
5.37	7.92	CC(C)C[C@H](CC(=O)NO)C(=O)N[C@@H](Cc1ccccc1)C(=O)NCC=O
8.15	5.85	CC(C)C[C@H](CC(=O)NO)C(=O)N[C@@H](Cc1ccccc1)C(=O)N[C@H](C=O)CC(C)C
7.64	7.33	CC(C)C[C@H](CC(=O)NO)C(=O)N[C@@H](CC(C)C)C(=O)N[C@@H](C)C=O
< 6.00	7.54	CCOC(OCC)[C@H](C)NC(=O)[C@H](Cc1ccccc1)NC(=O)[C@@H](CC(=O)NO)CC(C)C

Structure (SMILES)	pIC50 (Procathepsin L)	pIC50 (Interstitial collagenase)
CC(C)C[C@H](CC(=O)NO)C(=O)N[C@@H](Cc1ccccc1)C(=O)N[C@@H](C)C=O	7.82	7.60
